Article PMC8619641, “The Antileukemic Effect of Xestoquinone, A Marine-Derived Polycyclic Quinone-Type Metabolite, Is Mediated through ROS-Induced Inhibition of HSP-90” (Molecules, 2021)

Biological target: T1, topo IIα (Topo II) (Homo sapiens, UniProt P11388)
T1 construct: gene TOP2A
Assay: cell-free supercoiled pHOT1 plasmid DNA relaxation assay
Assay type: biochemical

T1 sequence (P11388 whole entry): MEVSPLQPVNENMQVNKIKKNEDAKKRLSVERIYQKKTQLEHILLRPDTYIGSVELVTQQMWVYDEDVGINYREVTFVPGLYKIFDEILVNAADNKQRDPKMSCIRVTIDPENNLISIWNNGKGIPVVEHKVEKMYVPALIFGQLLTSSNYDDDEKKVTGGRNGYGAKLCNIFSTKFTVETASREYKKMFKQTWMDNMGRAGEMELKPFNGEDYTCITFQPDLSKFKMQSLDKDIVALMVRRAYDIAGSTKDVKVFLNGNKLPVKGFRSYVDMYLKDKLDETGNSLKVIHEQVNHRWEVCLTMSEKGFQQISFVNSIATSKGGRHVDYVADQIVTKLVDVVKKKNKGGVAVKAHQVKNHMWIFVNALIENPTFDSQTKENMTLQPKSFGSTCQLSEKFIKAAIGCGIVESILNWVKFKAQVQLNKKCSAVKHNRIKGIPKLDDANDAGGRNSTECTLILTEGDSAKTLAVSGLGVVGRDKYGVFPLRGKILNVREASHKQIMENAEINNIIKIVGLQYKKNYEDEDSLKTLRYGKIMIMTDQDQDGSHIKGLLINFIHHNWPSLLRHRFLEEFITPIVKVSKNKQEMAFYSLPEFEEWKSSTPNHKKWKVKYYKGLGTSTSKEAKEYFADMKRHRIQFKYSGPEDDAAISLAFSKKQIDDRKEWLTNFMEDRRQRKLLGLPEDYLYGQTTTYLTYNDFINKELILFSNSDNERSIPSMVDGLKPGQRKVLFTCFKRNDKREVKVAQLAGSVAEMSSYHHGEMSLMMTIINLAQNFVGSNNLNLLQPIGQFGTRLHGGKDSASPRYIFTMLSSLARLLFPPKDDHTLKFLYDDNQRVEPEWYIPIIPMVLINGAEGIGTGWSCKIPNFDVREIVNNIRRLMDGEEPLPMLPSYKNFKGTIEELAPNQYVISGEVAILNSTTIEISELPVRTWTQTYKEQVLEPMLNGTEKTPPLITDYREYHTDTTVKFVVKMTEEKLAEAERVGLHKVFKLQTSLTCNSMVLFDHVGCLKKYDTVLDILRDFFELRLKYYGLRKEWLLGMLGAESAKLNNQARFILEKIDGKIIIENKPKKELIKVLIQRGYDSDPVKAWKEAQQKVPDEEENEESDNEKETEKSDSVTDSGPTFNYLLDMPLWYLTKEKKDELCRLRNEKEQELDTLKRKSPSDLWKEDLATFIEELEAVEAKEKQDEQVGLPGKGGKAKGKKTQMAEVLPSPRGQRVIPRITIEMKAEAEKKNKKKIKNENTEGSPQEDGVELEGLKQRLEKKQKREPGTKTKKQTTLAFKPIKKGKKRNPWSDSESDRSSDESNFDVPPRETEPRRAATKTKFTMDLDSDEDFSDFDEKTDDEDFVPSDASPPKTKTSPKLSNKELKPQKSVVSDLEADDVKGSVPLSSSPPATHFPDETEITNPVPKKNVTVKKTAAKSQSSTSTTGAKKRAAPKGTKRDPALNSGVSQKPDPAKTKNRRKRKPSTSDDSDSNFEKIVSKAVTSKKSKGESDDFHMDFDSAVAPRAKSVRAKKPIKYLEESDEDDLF

## C[C@@]12CCCc3coc(c31)C(=O)c1cc3c(cc12)C(=O)C=CC3=O [XQ, xestoquinone]
  IC50: 94 nM
